Consider 14 compounds from patent US20240262795A1, “PYRAZINE COMPOUNDS AS INHIBITORS OF FLT3” (Biomea Fusion, Inc., priority 2021, published 2024).

The target of assay [1] is T1, WT FLT3 (Homo sapiens, UniProt P36888).
T1 construct: purchased Invitrogen PR4666C
T1 sequence (P36888 564-993 limits assumed): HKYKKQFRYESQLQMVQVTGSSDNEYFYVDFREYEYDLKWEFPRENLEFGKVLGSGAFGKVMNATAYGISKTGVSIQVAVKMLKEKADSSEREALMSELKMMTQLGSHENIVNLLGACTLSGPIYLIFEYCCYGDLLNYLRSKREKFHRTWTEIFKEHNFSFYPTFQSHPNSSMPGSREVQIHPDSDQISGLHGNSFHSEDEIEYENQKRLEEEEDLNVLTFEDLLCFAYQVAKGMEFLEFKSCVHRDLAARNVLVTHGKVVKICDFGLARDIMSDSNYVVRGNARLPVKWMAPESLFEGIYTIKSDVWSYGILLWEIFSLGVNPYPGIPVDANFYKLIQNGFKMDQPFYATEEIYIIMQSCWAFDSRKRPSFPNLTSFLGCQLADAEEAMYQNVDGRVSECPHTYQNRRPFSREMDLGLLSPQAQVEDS
As to the kind of experiment: WT FLT3 Lance Ultra TR-FRET kinase assay. Type of assay: biochemical. The essentials:
(§1)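 Lance Ultra TR-FRET with 50 nM ULight-JAK-1 (Tyr1023) peptide, Eu-anti-phosphotyrosine (PT66) detection, in HEPES pH 7.5 buffer at 23° C, 30 min enzyme/compound preincubation. WT: 0.5 nM enzyme, 100 μM ATP, 30 min; ITD: 0.0625 nM, 50 μM ATP, 60 min. IC50 by four-parameter fit of 11-point 3× dilutions.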
In general terms: Time-resolved FRET reads energy transfer from a long-lived donor to a nearby acceptor.

The subject of assay [2] is MOLM-13. The experiment in a line: Proliferation inhibition, CellTiter-Glo, MOLM-13. It is filed as cell-based, human. To be noted: Homo sapiens, 96 h; MOLM-13 cells, IC50 (4 days), CellTiter-Glo; read-out: MOLM-13 IC50. The essentials: (§2)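 About 10,000 cells per well in RPMI-1640 with 10% FBS. Compounds added 2 h after seeding at eight concentrations in duplicate (0.2% DMSO as 100% proliferation), then incubated ~96 h at 37° C, 5% CO2. ATP measured by CellTiter-Glo luminescence; IC50 from four-parameter logistic fit.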
(Cellular ATP, detected with luciferase, serves as a proxy for viable cell number.)

Assay [3] concerns the target T2, FLT3-ITD (Homo sapiens, UniProt P36888, DUP595-601).
T2 construct: purchased Signalchem F-12-12CG-10
T2 sequence (P36888 with tags, fused parts or gaps DUP595-601 limits assumed): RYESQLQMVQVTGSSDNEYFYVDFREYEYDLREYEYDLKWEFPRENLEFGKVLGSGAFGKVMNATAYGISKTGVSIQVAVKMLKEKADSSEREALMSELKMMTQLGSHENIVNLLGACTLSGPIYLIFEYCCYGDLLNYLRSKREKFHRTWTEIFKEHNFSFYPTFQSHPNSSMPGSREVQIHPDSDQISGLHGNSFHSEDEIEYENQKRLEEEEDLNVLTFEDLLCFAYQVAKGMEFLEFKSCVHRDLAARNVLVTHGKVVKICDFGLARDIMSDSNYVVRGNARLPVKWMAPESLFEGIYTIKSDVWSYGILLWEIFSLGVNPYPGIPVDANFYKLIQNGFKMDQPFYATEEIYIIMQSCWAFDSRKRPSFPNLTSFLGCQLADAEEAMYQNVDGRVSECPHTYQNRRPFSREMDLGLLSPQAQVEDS
As to the kind of experiment: FLT3-ITD Lance Ultra TR-FRET kinase assay. It is filed as biochemical. A digest of the protocol: as §1

In assay [4] the test system is K-562. As to the kind of experiment: Proliferation inhibition, CellTiter-Glo, K-562. It is filed as cell-based, human. To be noted: Homo sapiens, K562, 96 h; K-562 cells, IC50 (4 days), CellTiter-Glo; read-out: K-562 IC50. A digest of the protocol: as §2
For assay [5], the system named is MV-4-11. The experiment in a line: Proliferation inhibition, CellTiter-Glo, MV-4-11. Type of assay: cell-based, human. To be noted: Homo sapiens, MV4-11, 96 h; MV-4:11 cells, IC50 (4 days), CellTiter-Glo; read-out: MV-4:11 IC50. The essentials: as §2

What is called IC50 is the concentration that inhibits the measured activity by half. `CCc1nc(C(N)=O)c(Nc2cccc(CCNC(=O)[C@H](C)N(C)C(=O)C#CCN(C)C)c2)nc1N(C)C` [Compound 203, (S)-5-(dimethylamino)-3-((3-(2-(2-(4-(dimethylamino)-N-methylbut-2-ynamido)propanamido)ethyl)phenyl)amino)-6-ethylpyrazine-2-carboxamide]: the IC50 in assay [1] is 0.501 to 1 nM; in assay [2], 1 to 10 nM; in assay [3], 0.201 to 0.5 nM; in assay [4] it was > 500 nM; in assay [5], < 1 nM.
For `CCc1nc(Nc2cccc([C@H](C)CNC(=O)CN(C)C(=O)/C=C/CN3CCC3)c2)c(C(N)=O)nc1CC` [Compound 519, (S,E)-3-((3-(1-(2-(4-(azetidin-1-yl)-N-methylbut-2-enamido)acetamido)propan-2-yl)phenyl)amino)-5,6-diethylpyrazine-2-carboxamide] the same measures were > 1 nM, 10 to 100 nM, > 1 nM, > 500 nM and 1 to 10 nM.
For `CCc1nc(C(N)=O)c(Nc2cccc(CCNC(=O)[C@H](C)N(C)C(=O)/C=C/CN(C)C)c2)nc1N(C)C` [Compound 137, (S,E)-5-(dimethylamino)-3-((3-(2-(2-(4-(dimethylamino)-N-methylbut-2-enamido)propanamido)ethyl)phenyl)amino)-6-ethylpyrazine-2-carboxamide] the same measures were 0.501 to 1 nM, < 1 nM, 0.201 to 0.5 nM, > 500 nM and < 1 nM.
For `CCc1nc(C(N)=O)c(Nc2cccc(CCNC(=O)[C@H](C)NC(=O)/C=C/CN(C)C)c2)nc1N(C)C(C)C` [Compound 502, (S,E)-3-((3-(2-(2-(4-(dimethylamino)but-2-enamido)propanamido)ethyl)phenyl)amino)-6-ethyl-5-(isopropyl(methyl)amino) pyrazine-2-carboxamide] the same measures were 0.101 to 0.2 nM, < 1 nM, 0.201 to 0.5 nM, > 500 nM and < 1 nM.
On to `CCc1nc(C(N)=O)c(Nc2cccc(CCNC(=O)[C@@H](C)N(C)C(=O)/C=C/CN(C)C)c2)nc1N(C)C(C)C` [Compound 302, (R,E)-3-((3-(2-(2-(4-(dimethylamino)-N-methylbut-2-enamido)propanamido)ethyl)phenyl)amino)-6-ethyl-5-(isopropyl (methyl)amino) pyrazine-2-carboxamide], for which the IC50 in assay [1] was > 1 nM; in assay [2] it was 1 to 10 nM; in assay [3], > 1 nM; in assay [4], > 500 nM; in assay [5], < 1 nM.
For `C=CC(=O)N(C)CC(=O)NC[C@H](C)c1cccc(Nc2nc(N(C)CC)c(CC)nc2C(N)=O)c1` [Compound 513, (R)-6-ethyl-5-(ethyl (methyl)amino)-3-((3-(1-(2-(N-methylacrylamido)acetamido)propan-2-yl)phenyl)amino) pyrazine-2-carboxamide], the 50% inhibitory concentration (IC50) in assay [1] was 0.501 to 1 nM; in assay [2], 1 to 10 nM; in assay [3], 0.201 to 0.5 nM; in assay [4], > 500 nM; in assay [5], 10 to 100 nM.
For `CCc1nc(C(N)=O)c(Nc2cccc(CCNC(=O)[C@H](C)NC(=O)/C=C/CN(C)C)c2)nc1NC(C)C` [Compound 501, (S, E)-3-((3-(2-(2-(4-(dimethylamino)but-2-enamido)propanamido)ethyl)phenyl)amino)-6-ethyl-5-(isopropylamino) pyrazine-2-carboxamide] the same measures were 0.501 to 1 nM, < 1 nM, 0.501 to 1 nM, > 500 nM and < 1 nM.
For `C=CC(=O)N(C)CC(=O)NCCc1cc(Nc2nc(N(C)CC)c(CC)nc2C(N)=O)ccn1` [Compound 515, 6-ethyl-5-(ethyl(methyl)amino)-3-((2-(2-(2-(N-methylacrylamido)acetamido)ethyl)pyridin-4-yl)amino) pyrazine-2-carboxamide] the same measures were 0.501 to 1 nM, 1 to 10 nM, 0.101 to 0.2 nM, > 500 nM and < 1 nM.
In the case of `Cc1nc(C(N)=O)c(Nc2cc(F)cc(CCNC(=O)[C@H](C)N(C)C(=O)/C=C/CN(C)C)c2)nc1C1CC1` [Compound 254, (S,E)-5-cyclopropyl-3-((3-(2-(2-(4-(dimethylamino)-N-methylbut-2-enamido)propanamido)ethyl)-5-fluorophenyl)amino)-6-methylpyrazine-2-carboxamide], the half-inhibitory concentration (IC50) is 0.501 to 1 nM in assay [1]; 1 to 10 nM in assay [2]; 0.501 to 1 nM in assay [3]; > 500 nM in assay [4]; < 1 nM in assay [5].
For the compound `CCc1nc(C(N)=O)c(Nc2cc(F)cc(CCNC(=O)[C@H](C)N(C)C(=O)/C=C/CN(C)C)c2)nc1C1CC1` [Compound 159, (S,E)-5-cyclopropyl-3-((3-(2-(2-(4-(dimethylamino)-N-methylbut-2-enamido)propanamido)ethyl)-5-fluorophenyl)amino)-6-ethylpyrazine-2-carboxamide], the IC50 is 0.501 to 1 nM in assay [1]; 1 to 10 nM in assay [2]; 0.201 to 0.5 nM in assay [3]; > 500 nM in assay [4]; < 1 nM in assay [5].
On to `CCc1nc(C(N)=O)c(Nc2cccc(CCNC(=O)[C@H](C)N(C)C(=O)/C=C/CNC)c2)nc1NC(C)C` [Compound 303, (S, E)-6-ethyl-5-(isopropylamino)-3-((3-(2-(2-(N-methyl-4-(methylamino)but-2-enamido)propanamido)ethyl)phenyl)amino) pyrazine-2-carboxamide], for which the half-maximal inhibitory concentration (IC50) in assay [1] is 0.201 to 0.5 nM; in assay [2], < 1 nM; in assay [3] it was 0.201 to 0.5 nM; in assay [4] it was > 500 nM; in assay [5] it was < 1 nM.
For `C=CC(=O)N(C)CC(=O)NCCc1cccc(Nc2nc(CC(C)C)c(CC)nc2C(N)=O)c1` [Compound 510, 6-ethyl-5-isobutyl-3-((3-(2-(2-(N-methylacrylamido)acetamido)ethyl)phenyl)amino) pyrazine-2-carboxamide], the IC50 in assay [1] is > 1 nM; in assay [2], 10 to 100 nM; in assay [3] it was > 1 nM; in assay [4], > 500 nM; in assay [5] it was 10 to 100 nM.
On to `Cc1nc(C(N)=O)c(Nc2cc(F)cc(CCNC(=O)[C@H](C)N(C)C(=O)/C=C/CN(C)C)c2)nc1N(C)C` [Compound 239, 5-(dimethylamino)-3-[3-[2-[[(2S)-2-[[(E)-4-(dimethylamino)but-2-enoyl]-methyl-amino]propanoyl]amino]ethyl]-5-fluoro-anilino]-6-methyl-pyrazine-2-carboxamide], for which the concentration for half-maximal inhibition (IC50) in assay [1] was 0.501 to 1 nM; in assay [2], 10 to 100 nM; in assay [3], 0.101 to 0.2 nM; in assay [4], > 500 nM; in assay [5], 1 to 10 nM.
For `CCc1nc(C(N)=O)c(Nc2cccc([C@@H](C)CNC(=O)CN(C)C(=O)/C=C/CN(C)C)c2)nc1C` [Compound 321, (R,E)-3-((3-(1-(2-(4-(dimethylamino)-N-methylbut-2-enamido)acetamido)propan-2-yl)phenyl)amino)-6-ethyl-5-methylpyrazine-2-carboxamide] the same measures were 0.501 to 1 nM, 1 to 10 nM, > 1 nM, > 500 nM and 1 to 10 nM.
